In US20090215778A1, “Alpha-substituted Arylmethyl Piperazine Pyrazolo [1,5-alpha]Pyrimidine Amide Derivatives” (priority 2007, published 2009):

Key:
[1] = molecular target: T1, HIV Env six-helix bundle (6HB) structure (Human immunodeficiency virus type 1 group M subtype B, UniProt P04579); test: Six-helix bundle (6HB) assay; type: cell-based, HIV-1 (strain RF)
T1 construct: H9 cells chronically infected with HIV-1 (H9/HIV-1RF); endogenous in cells; host or cells: H9 cells chronically infected with HIV-1 strain RF (Env is made from the virus in the infected cells, not by transfection)
T1 sequence (P04579 32-519): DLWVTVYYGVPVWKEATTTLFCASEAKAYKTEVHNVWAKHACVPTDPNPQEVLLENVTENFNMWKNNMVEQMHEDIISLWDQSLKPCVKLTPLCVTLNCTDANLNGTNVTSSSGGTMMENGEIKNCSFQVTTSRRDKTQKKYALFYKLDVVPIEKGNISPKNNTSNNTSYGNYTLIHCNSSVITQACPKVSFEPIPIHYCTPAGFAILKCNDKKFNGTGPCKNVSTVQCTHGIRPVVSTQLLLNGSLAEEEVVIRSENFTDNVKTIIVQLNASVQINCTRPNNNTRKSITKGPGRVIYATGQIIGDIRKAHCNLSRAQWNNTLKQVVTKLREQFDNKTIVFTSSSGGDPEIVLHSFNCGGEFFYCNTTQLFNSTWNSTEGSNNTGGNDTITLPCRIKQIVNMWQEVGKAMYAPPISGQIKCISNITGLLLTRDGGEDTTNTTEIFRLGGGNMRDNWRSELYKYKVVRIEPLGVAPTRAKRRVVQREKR
T1 sequence (P04579 520-865): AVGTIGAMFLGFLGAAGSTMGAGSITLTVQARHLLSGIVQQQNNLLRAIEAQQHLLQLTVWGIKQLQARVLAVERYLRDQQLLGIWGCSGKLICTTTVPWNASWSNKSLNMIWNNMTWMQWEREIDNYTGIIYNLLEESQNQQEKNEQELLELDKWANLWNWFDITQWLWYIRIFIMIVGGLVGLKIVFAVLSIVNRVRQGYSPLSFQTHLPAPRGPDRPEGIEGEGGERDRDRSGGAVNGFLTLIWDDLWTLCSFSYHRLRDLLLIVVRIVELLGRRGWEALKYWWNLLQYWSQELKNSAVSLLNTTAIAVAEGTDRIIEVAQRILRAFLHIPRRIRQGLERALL
Protocol: 3×10^6H9 cells were incubated with 1 mL of HIV-1 (strain RF) supplemented with 40 μg/mL of DEAE-dextran. Virus and cells were incubated together at 37° C. for 2-4 hours with sporadic shaking to resuspend cells. 10 mL of media (RPMI 1640 containing 10% fetal bovine serum and supplemented with 50 μg/mL gentamicin) was then added and the virus-cell coculture was incubated at 37° C. in a humidified 5% CO2 incubator. 3 days post-infection and every 2-3 days thereafter, the infected H9/HIV-1RF cells were centrifuged, the supernatant was removed, and the cells were resuspended at a density of 0.3×10^6 cells/mL in media (RPMI 1640 containing 10% fetal bovine serum and supplemented with 50 μg/mL gentamicin). Chronically infected H9/HIV-1RF cells were used in experiments starting 12-15 days after infection and up to 40 days post-infection.
This assay determines the effect of compounds on conformational changes in HIV envelope glycoprotein (Env) that are required in order for Env to mediate the fusion of the viral and cellular membranes during virus entry and infection. Specifically, this assay measures the effect of compounds on the formation of the HIV Env six-helix bundle (6HB) structure.
H9 cells chronically infected with HIV-1 (H9/HIV-1RF) were resuspended in Stain/Wash Buffer (1% bovine serum albumin, 0.1% sodium azide in phosphate-buffered saline) and aliquoted at 2.5×10^5 cells per well into 96-well V-bottom plates containing various concentrations of test compounds. Cells and compounds were incubated for 30 minutes at 37° C. Recombinant soluble CD4 (sCD4) was then added to a final concentration of 1 μg/mL. Negative control wells contained no sCD4 and no test compound. Positive control wells contained sCD4 but no test compound. The plate was incubated for 1 hour at 37° C. to allow the sCD4 to bind to HIV Env and induce conformational changes in the Env protein. Antibody that is specific for the HIV Env six-helix bundle conformation was then added (1 μL polyclonal rabbit serum per well), and the plate was incubated for an additional 1 hour at 37° C. to permit antibody binding. The cells were then washed once with Stain/Wash Buffer to remove compound and excess antibody. The cells were resuspended in Stain/Wash Buffer containing PE-labeled anti-rabbit secondary antibody (KPL) at 0.25 μg per well. The cells were incubated for 45 min at 4° C. to permit secondary antibody binding. Fluorescence was detected using a BD FACSArray™ bioanalyzer. Compounds that inhibited Env conformational changes were identified as those that decreased primary antibody binding to the six-helix bundle epitope resulting in a decrease in fluorescence signal.

HIV-1, NL4-3 strain = test: Virus infection assay (virus entry and single-cycle infection); type: cell-based; details: Human immunodeficiency virus 1, NL43, TZM-b1, read-out: Nl4
Protocol: TZM-b1 indicator cells were propagated in Dulbecco's Modified Eagle's Medium (DMEM) containing 10% fetal bovine serum (FBS, heat-inactivated) and supplemented with gentamicin (50 ug/mL).
This assay determines the effects of compounds on virus entry and single-cycle infection of cells. In this assay, virus (HIV-1, NL4-3 strain) is added to indicator cells expressing the CD4 receptor and both the CXCR4 and CCR5 co-receptor. The cells contain both a lac Z and a luciferase reporter gene under control of the viral LTR transcription promoter. The cells and virus are incubated together in the presence of various concentrations of test compounds. Successful infection of the cells by the virus permits activation of the reporter gene by the viral Tat transcription factor. The resulting beta-galactosidase or luciferase activity is quantitated using a chemiluminescent substrate and a luminescent plate reader.
Specifically, one day prior to infection, 1.5×10^4 TZM-b1 indicator cells were added to each well of a 96-well microtiter plate. On the day of the experiment, virus (MOI 0.01) in 50 μL of medium (Dulbecco's Modified Eagle's Medium) supplemented with DEAE-dextran at a final concentration of 80 μg/mL was added to cells along with various concentrations of test compound in 50 μL of Dulbecco's Modified Eagle's Medium. Control wells had virus alone. Following a 4 hr incubation at 37° C., complete media [DMEM supplemented with 10% fetal bovine serum (FBS, heat-inactivated) and gentamicin (50 ug/mL)] was added. One day post-infection the level of virus infection was quantitated by detection of β-galactosidase expression using the Gal-Screen system (Applied Biosystems).

Row | Structure (SMILES) | IC50 [1] [µM] | IC50 (HIV-1, NL4-3 strain) [µM]
1 | COc1ccc(-c2nc3c(C(=O)N4CCN(C(CO)c5cccc(NC(C)=O)c5)C[C@H]4C)cnn3c(C(F)(F)F)c2C)cc1 (stereo partly drawn) [acetamide, N-[3-[2-hydroxy-1-[(3R)-4-[[5-(4-methoxyphenyl)-6-methyl-7-(trifluoromethyl)pyrazolo[1,5-α]pyrimidin-3-yl]carbonyl]-3-methyl-1-piperazinyl]ethyl]phenyl]-] | < 1 | < 1
2 | COc1ccc(-c2nc3c(C(=O)N4CCN([C@@H](C)c5cccc(NC(C)=O)c5)C[C@H]4C)cnn3c(C(F)(F)F)c2C)cc1 [acetamide, N-[3-[(1S)-1-[(3R)-4-[[5-(4-methoxyphenyl)-6-methyl-7-(trifluoromethyl)pyrazolo[1,5-α]pyrimidin-3-yl]carbonyl]-3-methyl-1-piperazinyl]ethyl]phenyl]-] | < 1 | < 1
3 | COc1ccc(-c2nc3c(C(=O)N4CCN([C@@H](C)c5ccc(NC(C)=O)cc5)C[C@H]4C)cnn3c(C(F)(F)F)c2C)cc1 [acetamide, N-[4-[(1S)-1-[(3R)-4-[[5-(4-methoxyphenyl)-6-methyl-7-(trifluoromethyl)pyrazolo[1,5-α]pyrimidin-3-yl]carbonyl]-3-methyl-1-piperazinyl]ethyl]phenyl]-] | > 10.1 | 1.1 to 10
4 | COc1ccc(-c2nc3c(C(=O)N4CCN(C(CO)c5cccc(CNC(C)=O)c5)C[C@H]4C)cnn3c(C(F)(F)F)c2C)cc1 (stereo partly drawn) [acetamide, N-[[3-[2-hydroxy-1-[(3R)-4-[[5-(4-methoxyphenyl)-6-methyl-7-(trifluoromethyl)pyrazolo[1,5-α]pyrimidin-3-yl]carbonyl]-3-methyl-1-piperazinyl]ethyl]phenyl]methyl]-] | > 10.1 | > 10.1
5 | COc1ccc(-c2nc3c(C(=O)N4CCN(C(CO)c5cccc(C(N)=O)c5)C[C@H]4C)cnn3c(C(F)(F)F)c2C)cc1 (stereo partly drawn) [benzamide, 3-[2-hydroxy-1-[(3R)-4-[[5-(4-methoxyphenyl)-6-methyl-7-(trifluoromethyl)pyrazolo[1,5-α]pyrimidin-3-yl]carbonyl]-3-methyl-1-piperazinyl]ethyl]-] | < 1 | < 1
6 | COc1ccc(-c2nc3c(C(=O)N4CCN(C(CO)c5cccc(S(N)(=O)=O)c5)C[C@H]4C)cnn3c(C(F)(F)F)c2C)cc1 (stereo partly drawn) [benzenesulfonamide, 3-[2-hydroxy-1-[(3R)-4-[[5-(4-methoxyphenyl)-6-methyl-7-(trifluoromethyl)pyrazolo[1,5-α]pyrimidin-3-yl]carbonyl]-3-methyl-1-piperazinyl]ethyl]-] | > 10.1 | > 10.1
7 | COc1ccc(-c2nc3c(C(=O)N4CCN(C(CO)c5ccccc5C#N)C[C@H]4C)cnn3c(C(F)(F)F)c2C)cc1 (stereo partly drawn) [benzonitrile, 2-[2-hydroxy-1-[(3R)-4-[[5-(4-methoxyphenyl)-6-methyl-7-(trifluoromethyl)pyrazolo[1,5-α]pyrimidin-3-yl]carbonyl]-3-methyl-1-piperazinyl]ethyl]-] | < 1 | < 1
8 | COc1ccc(-c2nc3c(C(=O)N4CCN([C@@H](C)c5ccccc5C#N)C[C@H]4C)cnn3c(C(F)(F)F)c2C)cc1 [benzonitrile, 2-[(1S)-1-[(3R)-4-[[5-(4-methoxyphenyl)-6-methyl-7-(trifluoromethyl)pyrazolo[1,5-α]pyrimidin-3-yl]carbonyl]-3-methyl-1-piperazinyl]ethyl]-] | < 1 | < 1
9 | COc1ccc(-c2nc3c(C(=O)N4CCN(C(CO)c5cccc(C#N)c5)C[C@H]4C)cnn3c(C(F)(F)F)c2C)cc1 (stereo partly drawn) [benzonitrile, 3-[2-hydroxy-1-[(3R)-4-[[5-(4-methoxyphenyl)-6-methyl-7-(trifluoromethyl)pyrazolo[1,5-α]pyrimidin-3-yl]carbonyl]-3-methyl-1-piperazinyl]ethyl]-] | < 1 | < 1
